Experimental data published in article PMC7502707, “Characterization and validation of a preventative therapy for hypertrophic cardiomyopathy in a murine model of the disease” (Proceedings of the National Academy of Sciences of the …, 2020).

Tested on: cTnI-G203S cardiac myocytes
Test: Calcium transients in Fura-2 loaded myocytes
Format: cell-based, mouse
Settings: in vitro 1 μM peptide
Experimental: The whole-cell configuration of the patch-clamp technique was used to measure changes in ICa-L currents ([13]), and stimulate calcium transients in intact ventricular myocytes. Detailed methods are provided in SI Appendix.
Supporting Materials and Methods
Isolation of ventricular myocytes
Myocytes were isolated from wt and cTnI-G203S mice. Animals were anesthetized with pentobarbitone sodium (240 mg/kg) via intraperitoneal injection prior to excision of the heart. Cells were isolated as previously described (1-3). Mouse hearts were excised, cannulated onto a Langendorff apparatus via the aorta, and perfused with Krebs-Henseleit Buffer (KHB) containing […]
O2/CO2 at 37°C) for 4 min at 37°C. […]
The whole-cell configuration of the patch-clamp technique was used to measure changes in ICa-L currents (4), and stimulate calcium transients in intact ventricular myocytes. […] Currents were measured in extracellular modified Tyrode’s solution containing (in mM): NaCl 140, CsCl 5.4, CaCl2 2.5, MgCl2 0.5, HEPES 5.5 and glucose 11 (pH adjusted to 7.6 with NaOH). Macroscopic currents were recorded using an Axopatch 200B voltage-clamp amplifier (Molecular Devices) with a Digidata 1440A interface and pClamp10.5 software (Molecular Devices). […] The time course of changes in Ca2+ conductance were monitored by applying a 100 ms test pulse to 10 mV once every 10 seconds. […]

Question: QQLEEDLKGYLDWITQAE [AID-TAT] was tested. Which “cellular calcium handling (calcium transients, Fura-2)” value did it give?
Answer: no significant alteration
